Measurements reported in PMC6274262, “Synthesis of Novel Symmetrical 1,4-Disubstituted 1,2,3-Bistriazole Derivatives via ‘Click Chemistry’ and Their Biological Evaluation” (Molecules, 2016).

What was measured:
P. aeruginosa ATCC 10145 = assay: Agar-well diffusion antimicrobial screening; format: cell-based; conditions: Pseudomonas aeruginosa, ATCC10145; 50 μL of DMSO stock (concentration in c1) per 5 mm well, 18 h at 35 °C; standard ampicillin 10 μg; read-out: Inhibition Zone Pa
[1] = test system: Y. pseudotuberculosis ATCC 911; assay: microbe, parasite or virus in culture; format: cell-based; conditions: Yersinia pseudotuberculosis, ATCC911, 18 h, read-out: Inhibition Zone Yp
E. faecalis ATCC 29212 = assay: Agar-well diffusion antimicrobial screening; format: cell-based; conditions: Enterococcus faecalis, ATCC29212; 50 μL of DMSO stock (concentration in c1) per 5 mm well, 18 h at 35 °C; standard ampicillin 10 μg; read-out: Inhibition Zone Ef
B. cereus 709 Roma = assay: Agar-well diffusion antimicrobial screening; format: cell-based; conditions: Bacillus cereus, 50 μL of DMSO stock (concentration in c1) per 5 mm well, 18 h at 35 °C, standard ampicillin 10 μg, read-out: Inhibition Zone Bc
E. coli ATCC 35218 = assay: Agar-well diffusion antimicrobial screening; format: cell-based; conditions: Escherichia coli, ATCC35218, 18 h, read-out: Inhibition Zone Ec
S. aureus ATCC 25923 = assay: Agar-well diffusion antimicrobial screening; format: cell-based; conditions: Staphylococcus aureus, ATCC25923; 50 μL of DMSO stock (concentration in c1) per 5 mm well, 18 h at 35 °C; standard ampicillin 10 μg; read-out: Inhibition Zone Sa
[2] = DPPH radical scavenging assay; conditions: 0.1 mM methanolic DPPH, 30 min in the dark, 517 nm; mean ± S.D., triplicate
Method: Some 1,2,3-triazole compounds are known to act either as inhibitors of free radical production or as radical scavengers. Therefore, the potential antioxidant property of the new 1,2,3-trizole compounds was evaluated by determining their DPPH and SOD radical scavenging ability. DPPH is a stable free radical that accepts an electron or hydrogen radical to become a stable species. Due to its odd electron, DPPH gives a strong absorption band at 517 nm. Antioxidants are suitable reducing agents and neutralize the free radicals by pairing the DPPH odd electron with a hydrogen atom, and the DPPH solution turns yellow, observed as the decrease in absorbance at 517 nm.
The compounds were tested for in vitro antioxidant activities by the 2,2-diphenyl-1-picrylhydrazyl (DPPH) free radical scavenging assay method. The total volume of the assay mixtures containing methanolic DPPH solution (0.1 mM) and different concentrations of samples was 1 mL. After incubation in the dark at room temperature for 30 min., absorbance of the samples (Asample) was measured at 517 nm. Assay mixture without compound was used as control (control absorbance, Acontrol). All experiments were carried out in triplicate and results were expressed as the mean ±standard deviation (S.D.). Butylatedhydroxyanisole (BHA) were used as the reference compound. Free radical scavenging effect was calculated using Equation (1).

[3] = target: T1, Electric eel acetyl-cholinesterase enzyme (AchE, Type-VI-S; EC 3.1.1.7) (Electrophorus electricus, UniProt O42275); assay: biochemical; conditions: mean ± S.D. of three independent experiments; Tris-HCl pH 8.00, 412 nm
T1 construct: purchased Sigma-Aldrich Type-VI-S
T1 sequence (O42275 24-633): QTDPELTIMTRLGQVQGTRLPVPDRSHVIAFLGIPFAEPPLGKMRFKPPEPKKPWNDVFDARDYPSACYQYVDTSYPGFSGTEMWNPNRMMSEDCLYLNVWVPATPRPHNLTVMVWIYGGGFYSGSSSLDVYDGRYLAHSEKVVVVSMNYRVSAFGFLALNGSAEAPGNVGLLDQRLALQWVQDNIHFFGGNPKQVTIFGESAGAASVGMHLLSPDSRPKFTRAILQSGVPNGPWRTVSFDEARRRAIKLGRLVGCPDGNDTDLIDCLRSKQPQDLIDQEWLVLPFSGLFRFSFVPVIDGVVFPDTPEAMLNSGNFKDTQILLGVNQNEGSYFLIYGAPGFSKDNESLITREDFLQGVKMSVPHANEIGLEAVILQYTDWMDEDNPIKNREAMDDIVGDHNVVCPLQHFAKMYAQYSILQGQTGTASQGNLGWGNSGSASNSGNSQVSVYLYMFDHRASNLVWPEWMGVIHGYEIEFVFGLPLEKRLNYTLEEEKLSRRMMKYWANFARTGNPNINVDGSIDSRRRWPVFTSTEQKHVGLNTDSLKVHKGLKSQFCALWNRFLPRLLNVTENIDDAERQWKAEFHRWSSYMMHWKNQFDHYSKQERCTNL
Method: Firstly, all of the compounds stock solution in DMF (1 × 10^−3 M) were prepared and then five different concentrations were prepared from stock solution in buffer (Tris-HCI pH 8.00) for experiments. Briefly 50 µL of 50 mM Tris-HCl buffer (pH 8.00), 125 µL of 3 mM DTNB (in buffer), 25 µL of 0.2 U/mL AChE and 25 µL of sample dissolved in buffer and incubated for 15 min. at 25 °C. Fifteen minutes later, 25 µL of 15 mM acetyl thiocholine iodide were added and incubated 5 min. at room temperature. The reaction was initiated by the addition of acetylcholine iodide. The hydrolysis of this substrate was monitored by the formation of the yellow 5-thio-2-nitrobenzoate anion as a result of the reaction DTNB with thiocholine, catalized by enzyme at a wave length of 412 nm using a 96-well microplate reader (Multiskan Go UV-spectrophotometer, Thermo Fisher Scientific Oy Ratastie 2, Vantaa, Finland).
Inhibition of AChE was calculated by the comparison of reaction rates of the samples relative to the blank sample (DMF in phosphate buffer pH = 8) using the Equation (1) where Acontrol is the activity of enzyme without test sample and Asample is the activity of enzyme with test sample: (1) Scavenging effects (%)=[(Acontrol−Asample)/Acontrol]×100
The experiments were carried out in triplicate and IC50 values were examined.

C. albicans ATCC 60193 = assay: Agar-well diffusion antimicrobial screening; format: cell-based, Candida albicans
[4] = Superoxide radical scavenging assay (NBT photo reduction method); conditions: pH 7.8, 30 °C, 10 min, 560 nm, mean ± S.D., triplicate
Method: Superoxide scavenging activity of the compounds and reference were tested in a non-enzymatic superoxide radical (O2^−•) generation assay using a modified spectrophotometrical nitro blue tetrazolium (NBT) photo reduction method. The total volume of the assay mixtures containing riboflavin (2 μM), methionine (13 mM), NBT ([…]), EDTA (0.1 mM), and the test samples (50 mM phosphate buffer, pH = 7.8) was 1 mL. After illuminating with a fluorescent lamp at 30 °C for 10 min., the absorbance of the samples (Asample) was measured at 560 nm. Assay mixture without the compound was used as control (control absorbance, Acontrol). All experiments were carried out in triplicate and results were expressed as the mean ± standard deviation (S.D.). Free O2^−• radical scavenging effect was calculated using Equation (1).

S. cerevisiae RSKK 251 = assay: Agar-well diffusion antimicrobial screening; format: cell-based, Saccharomyces cerevisiae
M. smegmatis ATCC607 = assay: Agar-well diffusion antimicrobial screening; format: cell-based, Mycobacterium smegmatis; conditions: Mycolicibacterium smegmatis, ATCC607, 72 h; 50 μL of DMSO stock (concentration in c1) per 5 mm well, BHI agar, 3 days at 35 °C; standard streptomycin 10 µg; read-out: Inhibition Zone Ms

CC1(C)S[C@@H]2[C@H](NC(=O)[C@H](N)c3ccccc3)C(=O)N2[C@H]1C(=O)O [Amp, Ampicillin]
zone of inhibition at 10 µg/disc (P. aeruginosa ATCC 10145): 18 mm
zone of inhibition at 10 µg/disc [1]: 10 mm
zone of inhibition at 10 µg/disc (E. faecalis ATCC 29212): 35 mm
zone of inhibition at 10 µg/disc (B. cereus 709 Roma): 15 mm
zone of inhibition at 10 µg/disc (E. coli ATCC 35218): 10 mm
zone of inhibition at 10 µg/disc (S. aureus ATCC 25923): 10 mm

O=Cc1ccc(OCc2cn(CCCCn3cc(COc4ccc(C=O)cc4)nn3)nn2)cc1 [Compound 4b, 4,4′-(((Butane-1,4-diylbis(1H-1,2,3-triazole-1,4-diyl))bis(methylene))bis(oxy))dibenzaldehyde]
DPPH IC50 [2]: 125.05 (±0.08) µg/mL
IC50 [3]: 74.1 µM
Inhibition Zone Ca (C. albicans ATCC 60193): 6 mm
SOD IC50 [4]: 121.74 (±0.08) µg/mL

O=Cc1ccc(OCc2cn(CCCCCCCCn3cc(COc4ccc(C=O)cc4)nn3)nn2)cc1 [Compound 4e, 4,4′-(((Octane-1,8-diylbis(1H-1,2,3-triazole-1,4-diyl))bis(methylene))bis(oxy))dibenzaldehyde]
DPPH IC50 [2]: 192.04 (±0.09) µg/mL
IC50 [3]: 63.4 µM
Inhibition Zone Ca (C. albicans ATCC 60193): 6 mm
SOD IC50 [4]: 88.86 (±0.09) µg/mL

CC(=O)c1ccc(OCc2cn(CCCCCn3cc(COc4ccc(C(C)=O)cc4)nn3)nn2)cc1 [Compound 2c, 1,1′-((((Pentane-1,5-diylbis(1H-1,2,3-triazole-1,4-diyl))bis(methylene))bis(oxy))bis(4,1-phenylene))bis(ethan-1-one)]
DPPH IC50 [2]: 175.65 (±0.06) µg/mL
IC50 [3]: 67 µM
Inhibition Zone Ca (C. albicans ATCC 60193): 6 mm
SOD IC50 [4]: 147.36 (±0.05) µg/mL

OC(Cn1cncn1)(Cn1cncn1)c1ccc(F)cc1F [Flu., Fluconazole, reference compound]
zone of inhibition at 5 µg/disc (S. cerevisiae RSKK 251; Saccharomyces cerevisiae, RSKK251, 50 μL of DMSO stock (concentration in c1) per 5 mm well, 18 h at 35 °C, standard fluconazole 5 μg, read-out: Inhibition Zone Sc): 25 mm
zone of inhibition at 5 µg/disc (C. albicans ATCC 60193; Candida albicans, ATCC60193, 18 h, read-out: Inhibition Zone Ca): 25 mm

COc1cc(C(C)=O)ccc1OCc1cn(CCCCCCn2cc(COc3ccc(C(C)=O)cc3OC)nn2)nn1 [Compound 3d, 1-(4-((1-(6-(4-((4-Acetyl-2-methoxyphenoxy)methyl)-1H-1,2,3-triazol-1-yl)hexyl)-1H-1,2,3-triazol-4-yl)-methoxy)-2-methoxyphenyl)ethan-1-onen]
DPPH IC50 [2]: 149.21 (±0.06) µg/mL
IC50 [3]: 75.7 µM
Inhibition Zone Sc (S. cerevisiae RSKK 251): -
SOD IC50 [4]: 128.24 (±0.10) µg/mL

COc1cc(C(C)=O)ccc1OCc1cn(CCCn2cc(COc3ccc(C(C)=O)cc3OC)nn2)nn1 [Compound 3a]
DPPH IC50 [2]: 141.57 (±0.08) µg/mL
IC50 [3]: 63.3 µM
Inhibition Zone Ca (C. albicans ATCC 60193): 6 mm
SOD IC50 [4]: 120.53 (±0.04) µg/mL

4-((1-(10-(4-((4-Formyl-2-methoxyphenoxy)methyl)-1H-1,2,3-triazol-1-yl)decyl)-1H-1,2,3-triazol-4-yl)-methoxy)-2-methoxybenzaldehyde [Compound 5f]
Inhibition Zone Sc (S. cerevisiae RSKK 251): -

COc1cc(C(C)=O)ccc1OCc1cn(CCCCCn2cc(COc3ccc(C(C)=O)cc3OC)nn2)nn1 [Compound 3c]
DPPH IC50 [2]: 188.45 (±0.11) µg/mL
IC50 [3]: 75.7 µM
SOD IC50 [4]: 284.10 (±0.07) µg/mL

COc1cc(C=O)ccc1OCc1cn(CCCCCCCCn2cc(COc3ccc(C=O)cc3OC)nn2)nn1 [Compound 5e]
DPPH IC50 [2]: 221.57 (±0.06) µg/mL
IC50 [3]: 61.8 µM
SOD IC50 [4]: 188.84 (±0.08) µg/mL

CC(=O)c1ccc(OCc2cn(CCCCCCn3cc(COc4ccc(C(C)=O)cc4)nn3)nn2)cc1 [Compound 2d, 1,1′-((((Hexane-1,6-diylbis(1H-1,2,3-triazole-1,4-diyl))bis(methylene))bis(oxy))bis(4,1-phenylene))bis(ethan-1-one)]
DPPH IC50 [2]: 152.84 (±0.05) µg/mL
IC50 [3]: 62.4 µM
Inhibition Zone Ca (C. albicans ATCC 60193): 6 mm
SOD IC50 [4]: 154.79 (±0.06) µg/mL

O=Cc1ccc(OCc2cn(CCCCCn3cc(COc4ccc(C=O)cc4)nn3)nn2)cc1 [Compound 4c, 4,4′-(((Pentane-1,5-diylbis(1H-1,2,3-triazole-1,4-diyl))bis(methylene))bis(oxy))dibenzaldehyde]
DPPH IC50 [2]: 227.38 (±0.07) µg/mL
IC50 [3]: 83.4 µM
Inhibition Zone Ca (C. albicans ATCC 60193): 6 mm
SOD IC50 [4]: 60.32 (±0.07) µg/mL

[H]/N=C(/N)N[C@H]1[C@H](O)[C@@H](O)[C@H](O[C@@H]2O[C@@H](C)[C@](O)(C=O)[C@H]2O[C@@H]2O[C@@H](CO)[C@H](O)[C@@H](O)[C@@H]2NC)[C@@H](N/C(N)=N\[H])[C@@H]1O [Strep, Streptomycin]
zone of inhibition at 10 µg/disc (M. smegmatis ATCC607): 35 mm

CC(=O)c1ccc(OCc2cn(CCCCn3cc(COc4ccc(C(C)=O)cc4)nn3)nn2)cc1 [Compound 2b, 1,1′-((((Butane-1,4-diylbis(1H-1,2,3-triazole-1,4-diyl))bis(methylene))bis(oxy))bis(4,1-phenylene))bis(ethan-1-one)]
DPPH IC50 [2]: 158.72 (±0.05) µg/mL
IC50 [3]: 52.3 µM
SOD IC50 [4]: 107.54 (±0.07) µg/mL
